Data on eight compounds can be found in patent US20140088151A1, “ALHYDROXYMETHYL BIARYL BENZOTRIAZOLE DERIVATIVES” (priority 2011, published 2014).

What is called EC50 is the concentration needed to bring the measured effect to its halfway point.

T1 sequence (Q14416 19-872): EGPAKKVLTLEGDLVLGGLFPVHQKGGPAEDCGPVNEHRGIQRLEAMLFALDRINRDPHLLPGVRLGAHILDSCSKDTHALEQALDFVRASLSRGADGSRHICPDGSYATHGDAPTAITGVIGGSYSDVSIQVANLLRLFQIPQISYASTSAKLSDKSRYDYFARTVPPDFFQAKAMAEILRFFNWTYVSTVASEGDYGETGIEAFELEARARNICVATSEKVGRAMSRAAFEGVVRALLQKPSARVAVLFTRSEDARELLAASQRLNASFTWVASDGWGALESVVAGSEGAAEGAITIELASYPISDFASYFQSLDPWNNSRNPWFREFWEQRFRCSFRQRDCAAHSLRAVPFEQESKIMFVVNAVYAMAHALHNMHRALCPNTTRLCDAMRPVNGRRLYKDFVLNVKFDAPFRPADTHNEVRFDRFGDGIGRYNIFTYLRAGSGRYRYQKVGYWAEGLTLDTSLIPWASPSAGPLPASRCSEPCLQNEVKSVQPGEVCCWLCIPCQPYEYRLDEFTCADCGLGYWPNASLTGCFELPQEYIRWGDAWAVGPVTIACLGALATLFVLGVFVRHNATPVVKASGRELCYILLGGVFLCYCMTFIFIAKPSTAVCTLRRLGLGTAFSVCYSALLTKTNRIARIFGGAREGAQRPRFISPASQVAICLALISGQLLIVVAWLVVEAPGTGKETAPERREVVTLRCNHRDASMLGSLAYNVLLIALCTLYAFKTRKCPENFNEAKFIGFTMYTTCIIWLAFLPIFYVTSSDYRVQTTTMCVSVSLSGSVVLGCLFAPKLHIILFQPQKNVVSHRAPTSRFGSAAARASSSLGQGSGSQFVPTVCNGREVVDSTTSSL

The test has as its target T1, recombinant human mGluR2 (Homo sapiens, UniProt Q14416).
T1 construct: expressed in transfected cells
The test can be described thus: FLIPR Ca2+ mobilization assay, potentiation of mGluR2. The class given is cell-based. The settings on record: CHO dhfr- cells expressing human mGluR2 and Gα16, EC20 glutamate (900 nM). On the procedure: Potencies are determined as follows. The compounds of the present invention may be tested in a fluorescence laser imaging plate reader (FLIPR) based assay. This assay is a common functional assay to monitor Ca^2+ mobilization in whole cells expressing recombinant receptor coupled with a promiscuous G-protein. CHO dhfr− cells stably expressing recombinant human mGluR2 and Gα16 loaded with Fluo-4 AM (Invitrogen, Carlsbad Calif.) are treated with varying concentrations of compounds and the Ca^2+ response is monitored on a FLIPR384 (Molecular Devices, Sunnydale Calif.) for agonist activity. The potentiation response is monitored after a subsequent addition of an EC20 concentration of glutamate (900 nM). The maximum calcium response at each concentration of compound for agonism or potentiation are plotted as dose responses curves fitted with a four parameters logistic equation giving EC50 and Hill coefficient using the iterative non linear curve fitting software program.
For orientation: Calcium flux is commonly read through the fluorescence of an indicator in the cells.
As to `OCc1ccc(-c2ccc3c(nnn3CC3CC3)c2C(F)(F)F)c(F)n1` [Example 1, {5-[1-(Cyclopropylmethyl)-4-(trifluoromethyl)-1H-benzotriazol-5-yl]-6-fluoropyridin-2-yl}methanol], the concentration giving a half-maximal response (EC50) amounted to 27 nM.
As to `OCc1ccc(-c2ccc3c(nnn3CC3CC3)c2C(F)(F)F)cc1` [Example 2, {4-[1-(cyclopropylmethyl)-4-(trifluoromethyl)-1H-benzotriazol-5-yl]phenyl}methanol], the EC50 was determined as 11 nM.
As to `COC(=O)c1ccc(-c2ccc3c(nnn3CC3CC3)c2C(F)(F)F)c(F)c1` [Example 3, methyl 4-[1-(cyclopropylmethyl)-4-(trifluoromethyl)-1H-benzotriazol-5-yl]-3-fluorobenzoate], the EC50 was 15 nM.
In the case of `OCC(O)c1ccc(-c2ccc3c(nnn3CC3CC3)c2C(F)(F)F)c(F)n1` (centres unmarked) [Example 4, 1-{5-[1-(cyclopropylmethyl)-4-(trifluoromethyl)-1H-benzotriazol-5-yl]-6-fluoropyridin-2-yl}ethane-1,2-diol] it was 130 nM.
In the case of `CC(O)c1ccc(-c2ccc3c(nnn3CC3CC3)c2C(F)(F)F)cc1` (centres unmarked) [Example 5, 1-{4-[1-(cyclopropylmethyl)-4-(trifluoromethyl)-1H-benzotriazol-5-yl]phenyl}ethanol] it was 8.3 nM.
`COC(C)c1ccc(-c2ccc3c(nnn3CC3CC3)c2C(F)(F)F)cc1` (centres unmarked) [Example 6, 1-(cyclopropylmethyl)-5-[4-(1-methoxyethyl)phenyl]-4-(trifluoromethyl)-1H-benzotriazole]: the EC50 came out at 31 nM.
The value for `CC(C)(O)c1ccc(-c2ccc3c(nnn3CC3CC3)c2C(F)(F)F)cc1` [Example 7, 2-{4-[1-(cyclopropylmethyl)-4-(trifluoromethyl)-1H-benzotriazol-5-yl]phenyl}propan-2-ol] was 2.1 nM.
The value for `OC1CCOc2cc(-c3ccc4c(nnn4CC4CC4)c3C(F)(F)F)ccc21` (centres unmarked) [Example 8, 7-[1-(cyclopropylmethyl)-4-(trifluoromethyl)-1H-benzotriazol-5-yl]-3,4-dihydro-2H-chromen-4-ol] was 3.9 nM.
